Assay results published in patent publication US8975417B2, “Pyrazolopyrrolidine derivatives and their use in the treatment of disease” (Novartis AG, priority 2013, dated 2015).

Legend:
[1] = biological target: His-Brd4(44-477) (Homo sapiens (Human), UniProt O60885); experiment: TR-FRET in-vitro binding assay for BRD4; conditions: biochemical
Procedure, shortened: (§1)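 Assay buffer HEPES pH 7.5/NaCl/Tween20/BSA; protein solution 45 nM, peptide solution 60 nM acetyl-H4 (AcK5,8,12,16). Incubated 30 °C for 35 min; Eu-anti-His6 and SA-APC detection, TR-FRET read.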

[2] = biological target: His-Brd3(20-477) (Homo sapiens (Human), UniProt Q15059); experiment: TR-FRET in-vitro binding assay for BRD3; conditions: biochemical
Procedure, shortened: as §1

[3] = biological target: nuclear BRD4-NUT foci in HCC2494 NUT midline carcinoma cells (Homo sapiens (Human), UniProt O60885+Q86Y26); experiment: Nut-foci formation assay; type: cell-based; conditions: 24 hours, read-out: HCS Brd4-NUT IC50
Method: HCC2494 NUT midline carcinoma cells (expressing BRD4-NUT-fusion) were obtained from the University of Texas Southwestern and cultured in RPMI-1640 medium containing 10% Foetal Calf Serum at 37° C. in a humidified 5% CO2 incubator.
Compound-mediated inhibition of BRD4 activity was monitored by quantification of the number and intensity of nuclear BRD4-NUT foci using automated immunofluorescence microscopy. Briefly, 5000 cells in 20 μL fresh medium were seeded into Poly-D-Lysine-precoated 384-well plates and incubated overnight at 37° C. and 5% CO2, followed by addition of 5 μl medium containing compound dilutions at 5-fold their final intended concentration. Dose-response effects were assessed by 3-fold serial dilutions of the test compound, starting at 10 μM. Following incubation of the cells for 24 hours at 37° C. and 5% CO2, the cells were fixed by incubation with 3.7% formaldehyde for 10 min, followed by immunofluorescence staining using rabbit anti-NUT (Cell Signaling Technologies, Cat#3625) as primary, and AlexaFluor488-labeled goat anti-rabbit (Invitrogen, Cat#A11008) as secondary antibody (latter complemented with 1 μg/mL Hoechst33342 as DNA dye). Assay plates were imaged using the appropriate filter sets on the Cellomics VTi automated fluorescence microscopy platform (ThermoFisher Scientific) and the population average of the number of NUT-foci per nucleus is quantified using the Cellomics Spot Detection BioApplication image analysis algorithm (ThermoFisher Scientific). The effect of a particular test compound concentration on NUT-foci number and intensity is expressed as percentage of the value obtained for cells treated with vehicle only (DMSO, 0.1% final concentration), which was set as 100. Compound concentrations leading to half-maximal (IC50) inhibition of the aforementioned readout parameters were determined using standard four parameter curve fitting.

[4] = biological target: His-Brd2(60-472) (Homo sapiens (Human), UniProt P25440); experiment: TR-FRET in-vitro binding assay for BRD2; conditions: biochemical
Procedure, shortened: as §1

[5] = system: THP-1 cells; experiment: Cell growth inhibition assay (CellTiter-Glo), THP-1; type: cell-based; conditions: Homo sapiens, read-out: THP-1 TGI
Procedure, shortened: (§2)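 CellTiter-Glo ATP luminescence after compound exposure at 37° C., 5% CO2; 3-fold serial dilutions from 10 μM, 0.1% DMSO vehicle. Readings background- and day 0-corrected, vehicle = 100%, medium = −100%. IC50 and total growth inhibition (TGI) from four-parameter fits.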

[6] = system: MV-4-11 cells; experiment: Cell growth inhibition assay (CellTiter-Glo), MV-4-11; type: cell-based; conditions: Homo sapiens, MV4-11, read-out: MV-4-11 TGI
Procedure, shortened: as §2

[7] = system: K-562 cells; experiment: Cell growth inhibition assay (CellTiter-Glo), K-562; type: cell-based, human; conditions: Homo sapiens, K562, read-out: K-562 TGI
Procedure, shortened: as §2

His-Brd2(60-472), sequence (P25440 60-472): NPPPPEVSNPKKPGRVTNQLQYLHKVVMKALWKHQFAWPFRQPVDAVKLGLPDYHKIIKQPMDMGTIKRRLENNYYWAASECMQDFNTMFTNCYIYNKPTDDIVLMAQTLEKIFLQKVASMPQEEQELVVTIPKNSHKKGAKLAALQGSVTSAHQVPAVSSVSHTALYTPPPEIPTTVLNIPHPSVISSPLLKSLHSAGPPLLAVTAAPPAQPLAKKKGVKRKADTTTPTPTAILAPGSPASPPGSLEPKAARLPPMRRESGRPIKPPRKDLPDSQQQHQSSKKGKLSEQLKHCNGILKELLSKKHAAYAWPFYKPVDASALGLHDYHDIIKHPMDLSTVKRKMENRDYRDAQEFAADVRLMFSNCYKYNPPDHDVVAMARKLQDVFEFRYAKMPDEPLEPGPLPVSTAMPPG
His-Brd3(20-477), sequence (Q15059 20-477): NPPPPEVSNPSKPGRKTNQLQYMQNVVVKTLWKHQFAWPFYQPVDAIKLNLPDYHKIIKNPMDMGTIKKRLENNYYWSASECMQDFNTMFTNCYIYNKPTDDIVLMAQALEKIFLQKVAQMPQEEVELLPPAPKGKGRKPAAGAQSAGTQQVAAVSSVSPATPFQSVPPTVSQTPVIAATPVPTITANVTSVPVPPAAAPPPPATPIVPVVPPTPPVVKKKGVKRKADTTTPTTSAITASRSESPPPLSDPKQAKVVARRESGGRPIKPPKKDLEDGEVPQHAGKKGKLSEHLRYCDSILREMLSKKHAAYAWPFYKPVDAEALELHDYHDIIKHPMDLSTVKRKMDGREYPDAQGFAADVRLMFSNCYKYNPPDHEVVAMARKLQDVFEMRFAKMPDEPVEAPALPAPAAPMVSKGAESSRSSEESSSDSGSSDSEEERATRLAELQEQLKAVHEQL

| IC50 [1] [nM] | IC50 [2] [nM] | IC50 [3] [nM] | IC50 [4] [nM] | Compound | IC (total growth inhibition) [5] [µM] | IC (total growth inhibition) [6] [µM] | IC (total growth inhibition) [7] [µM] |
| --- | --- | --- | --- | --- | --- | --- | --- |
| 160 | 130 | 92.2 | 190 | Cc1cc(N2C(=O)c3nn(C4COC4)c(C)c3C2c2ccc(Cl)cc2)cn(C)c1=O (centres unmarked) [Example 134, 4-(4-chlorophenyl)-5-(1,5-dimethyl-6-oxo-1,6-dihydropyridin-3-yl)-3-methyl-2-(oxetan-3-yl)-4,5-dihydropyrrolo[3,4-c]pyrazol-6(2H)-one] | 0.291 | 0.187 | > 10 |
| 73 | 65 | 118 | 78 | Cc1c2c(nn1C1CC1)C(=O)N(c1cc(Cl)c(=O)n(C)c1)[C@@H]2c1ccc(Cl)cc1 [Example 19, (R)-5-(5-chloro-1-methyl-6-oxo-1,6-dihydropyridin-3-yl)-4-(4-chlorophenyl)-2-cyclopropyl-3-methyl-4,5-dihydropyrrolo[3,4-c]pyrazol-6(2H)-one] | 0.125 | 0.043 | > 10 |
| 21 | 24 | 40.1 | 33 | CNc1cc(N2C(=O)c3c(c(C)nn3C3CC3)[C@H]2c2ccc(Cl)cc2)nn2c(C)nnc12 [Example 161, (R)-4-(4-chlorophenyl)-1-cyclopropyl-3-methyl-5-(3-methyl-8-(methylamino)-[1,2,4]triazolo[4,3-b]pyridazin-6-yl)-4,5-dihydropyrrolo[3,4-c]pyrazol-6(1H)-one] | 0.152 | 0.102 | > 10 |
| 150 | 140 | 134 | 160 | CNC(=O)n1nc2c(c1C)C(c1ccc(Cl)cc1)N(c1cc(C)c(=O)n(C)c1)C2=O (centres unmarked) [Example 144, 4-(4-chlorophenyl)-5-(1,5-dimethyl-6-oxo-1,6-dihydropyridin-3-yl)-N,3-dimethyl-6-oxo-5,6-dihydropyrrolo[3,4-c]pyrazole-2(4H)-carboxamide] | 0.361 | 0.107 | > 10 |
| 190 | 120 | 366 | 160 | Cc1cc(N2C(=O)c3nn(C4CN(C)C4)c(C)c3C2c2ccc(Cl)cc2)cn(C)c1=O (centres unmarked) [Example 139, 4-(4-chlorophenyl)-5-(1,5-dimethyl-6-oxo-1,6-dihydropyridin-3-yl)-3-methyl-2-(1-methylazetidin-3-yl)-4,5-dihydropyrrolo[3,4-c]pyrazol-6(2H)-one] | 0.399 | 0.107 | > 10 |
